Values quoted from earlier work as cited in patent publication US20100173015A1, “COMPOSITIONS AND METHODS FOR THE ABSORPTION, CHELATION, AND ELIMINATION OF TRACE ELEMENTS” (priority 2009, published 2010).

Columns and labels:
[1] = system: NQO1; settings: microarray, in the presence of taxifolin
[2] = system: human lung embryonic fibroblasts (TIG-1); settings: TIG-1 cells
[3] = system: umbilical vein endothelial (HUVE) cells
[4] = system: CYP2E1; settings: microarray, in the presence of taxifolin
[5] = system: GSTM1; settings: microarray, in the presence of taxifolin

## O=C1c2c(O)cc(O)cc2O[C@H](c2ccc(O)c(O)c2)[C@H]1O [Dihydroquercetin]
[1]
  expression of phase II detoxification enzyme NQO1: upregulated
[2]
  50% lethal concentration: > 300 µmol
[3]
  50% lethal concentration: > 200 µmol
[4]
  expression of phase I detoxification enzyme CYP2E1: down regulated
[5]
  expression of phase II detoxification enzyme GSTM1: upregulated
